1 compound from BindingDB's records for patent US10143681 (Merck Sharp & Dohme, 2018) can be followed below.

This assay deals with Plasma kallikrein (Homo sapiens, UniProt P03952). Put plainly: Kallikrein Assay. Here is the method:
The effectiveness of a compound of the present invention as an inhibitor of Kallikrein can be determined using a relevant purified serine protease, and an appropriate synthetic substrate. The rate of hydrolysis of the chromogenic or fluorogenic substrate by the relevant serine protease was measured both in the absence and presence of compounds of the present invention. Assays were conducted at room temperature or at 37° C. […] A decrease in the rate of fluorescence change in the presence of inhibitor is indicative of enzyme inhibition. Such methods are known to one skilled in the art. […] Times required to achieve equilibration between enzyme and inhibitor were determined in control experiments. […] IC50 was determined by inflection point from a four parameter logistic curve fit. Ki was calculated using the Cheng Prusoff equation, Ki=IC50/(1+([S]/Km)).

Sequence of Plasma kallikrein (P03952 20-390 limits assumed): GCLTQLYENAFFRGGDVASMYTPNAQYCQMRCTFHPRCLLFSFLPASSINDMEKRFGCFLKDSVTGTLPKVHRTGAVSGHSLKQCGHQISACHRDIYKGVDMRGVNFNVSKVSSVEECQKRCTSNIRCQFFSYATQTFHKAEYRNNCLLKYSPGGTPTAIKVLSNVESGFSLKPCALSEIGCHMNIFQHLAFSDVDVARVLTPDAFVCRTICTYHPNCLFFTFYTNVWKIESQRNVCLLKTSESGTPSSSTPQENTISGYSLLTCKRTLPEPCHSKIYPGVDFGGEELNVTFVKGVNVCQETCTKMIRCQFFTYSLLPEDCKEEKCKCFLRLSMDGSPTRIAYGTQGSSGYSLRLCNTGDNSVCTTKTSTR
Sequence of Plasma kallikrein (P03952 391-638 limits assumed): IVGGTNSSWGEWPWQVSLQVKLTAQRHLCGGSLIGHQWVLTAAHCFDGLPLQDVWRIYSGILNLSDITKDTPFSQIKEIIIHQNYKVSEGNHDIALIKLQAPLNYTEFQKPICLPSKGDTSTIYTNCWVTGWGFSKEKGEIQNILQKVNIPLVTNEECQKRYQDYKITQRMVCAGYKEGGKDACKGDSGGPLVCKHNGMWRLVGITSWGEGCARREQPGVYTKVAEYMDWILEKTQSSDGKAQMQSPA

As a reminder, the IC50 is the concentration that gives 50% inhibition. `COc1cc([C@@H](CC2CC2)C(=O)Nc2ccc(C(=O)O)cc2)[n+]([O-])cc1-c1c(C(F)F)ccc(Cl)c1F` [US10143681, Example 69] had an IC50 of 42 nM.
